Assays:
[1] = target: T1, Ectonucleotide pyrophosphatase/phosphodiesterase family member 1 (Homo sapiens, UniProt P22413); experiment: Inhibition of human full length NPP1 expressed in African green monkey COS7 cell membrane fraction using p-nitrophenyl-5'-thymidine monophosphate as substrate preincubated for 10 mins followed by substrate addition measured after 30 mins
T1 sequence (P22413 whole entry): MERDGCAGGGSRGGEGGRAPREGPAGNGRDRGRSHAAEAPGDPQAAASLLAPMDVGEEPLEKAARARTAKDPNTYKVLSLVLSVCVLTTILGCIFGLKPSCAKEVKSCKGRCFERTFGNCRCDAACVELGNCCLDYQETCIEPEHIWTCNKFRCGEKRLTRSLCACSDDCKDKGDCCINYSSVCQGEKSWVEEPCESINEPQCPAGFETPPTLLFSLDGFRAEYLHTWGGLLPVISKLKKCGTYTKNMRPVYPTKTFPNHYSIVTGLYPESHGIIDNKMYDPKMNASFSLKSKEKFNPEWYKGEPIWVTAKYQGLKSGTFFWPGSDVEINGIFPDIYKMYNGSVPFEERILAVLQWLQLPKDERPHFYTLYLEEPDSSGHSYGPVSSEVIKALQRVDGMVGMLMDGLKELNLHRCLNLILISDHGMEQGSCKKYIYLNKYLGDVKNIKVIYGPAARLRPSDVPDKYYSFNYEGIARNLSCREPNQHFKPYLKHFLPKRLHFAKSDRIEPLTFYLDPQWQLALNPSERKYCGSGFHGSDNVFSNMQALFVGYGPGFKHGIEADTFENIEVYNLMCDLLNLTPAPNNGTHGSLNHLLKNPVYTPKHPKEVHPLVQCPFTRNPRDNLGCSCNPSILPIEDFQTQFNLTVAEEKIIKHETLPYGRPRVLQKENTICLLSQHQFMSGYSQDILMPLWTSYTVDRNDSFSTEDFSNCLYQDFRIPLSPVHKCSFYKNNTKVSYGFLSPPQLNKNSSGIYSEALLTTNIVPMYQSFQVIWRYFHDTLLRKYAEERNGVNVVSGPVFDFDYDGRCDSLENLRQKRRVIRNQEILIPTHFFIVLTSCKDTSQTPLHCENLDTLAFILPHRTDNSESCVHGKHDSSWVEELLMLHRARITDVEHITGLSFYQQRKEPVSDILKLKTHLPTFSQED

[2] = target: T2, Ectonucleotide pyrophosphatase/phosphodiesterase family member 3 (Homo sapiens, UniProt O14638); experiment: Inhibition of human full length NPP3 expressed in African green monkey COS7 cell membrane fraction using p-nitrophenyl-5'-thymidine monophosphate as substrate preincubated for 10 mins followed by substrate addition measured after 30 mins
T2 sequence (O14638 whole entry): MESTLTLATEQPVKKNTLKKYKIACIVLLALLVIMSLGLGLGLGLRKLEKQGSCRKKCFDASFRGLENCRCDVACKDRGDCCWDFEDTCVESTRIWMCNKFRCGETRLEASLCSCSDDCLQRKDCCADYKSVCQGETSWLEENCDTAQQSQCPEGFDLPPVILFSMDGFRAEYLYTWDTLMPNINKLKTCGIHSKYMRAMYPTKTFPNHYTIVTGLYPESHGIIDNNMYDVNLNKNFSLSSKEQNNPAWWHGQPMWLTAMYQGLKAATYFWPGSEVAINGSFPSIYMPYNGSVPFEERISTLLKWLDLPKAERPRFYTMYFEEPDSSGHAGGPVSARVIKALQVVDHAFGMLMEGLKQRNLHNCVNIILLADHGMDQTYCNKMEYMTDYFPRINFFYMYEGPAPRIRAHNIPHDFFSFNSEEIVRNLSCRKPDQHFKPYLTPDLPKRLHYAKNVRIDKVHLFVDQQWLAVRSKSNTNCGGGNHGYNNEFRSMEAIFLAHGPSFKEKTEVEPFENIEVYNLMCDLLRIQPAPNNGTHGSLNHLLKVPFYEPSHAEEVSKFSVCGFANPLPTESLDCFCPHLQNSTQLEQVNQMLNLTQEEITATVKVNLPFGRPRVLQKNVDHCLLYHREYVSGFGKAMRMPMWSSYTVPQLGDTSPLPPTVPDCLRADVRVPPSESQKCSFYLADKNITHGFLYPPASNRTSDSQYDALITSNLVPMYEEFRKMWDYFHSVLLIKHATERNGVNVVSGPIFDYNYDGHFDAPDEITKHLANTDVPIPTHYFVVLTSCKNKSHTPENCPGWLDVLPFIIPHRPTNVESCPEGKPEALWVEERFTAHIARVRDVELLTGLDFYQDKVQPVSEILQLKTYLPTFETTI

[3] = target: T3, Ectonucleoside triphosphate diphosphohydrolase 1 (Homo sapiens, UniProt P49961); experiment: Inhibition of human NTPDase1 expressed in African green monkey COS7 cell membrane fraction using ATP as substrate preincubated for 10 mins followed by substrate addition measured after 10 mins by malachite green reagent-based assay
T3 sequence (P49961 whole entry): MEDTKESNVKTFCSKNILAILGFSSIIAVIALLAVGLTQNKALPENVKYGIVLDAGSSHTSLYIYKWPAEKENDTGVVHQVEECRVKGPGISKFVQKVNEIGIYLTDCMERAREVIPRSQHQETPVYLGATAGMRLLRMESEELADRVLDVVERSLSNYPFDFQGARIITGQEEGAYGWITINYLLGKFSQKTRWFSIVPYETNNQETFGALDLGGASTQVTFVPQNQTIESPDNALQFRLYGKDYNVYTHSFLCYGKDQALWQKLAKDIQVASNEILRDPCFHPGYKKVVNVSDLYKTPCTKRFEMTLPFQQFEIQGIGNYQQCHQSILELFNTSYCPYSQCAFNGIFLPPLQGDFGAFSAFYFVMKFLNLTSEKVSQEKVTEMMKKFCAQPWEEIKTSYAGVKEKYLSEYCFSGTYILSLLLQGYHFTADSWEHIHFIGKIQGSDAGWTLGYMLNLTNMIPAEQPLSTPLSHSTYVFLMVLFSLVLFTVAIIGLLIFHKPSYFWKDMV

[4] = target: T4, Ectonucleoside triphosphate diphosphohydrolase 2 (Homo sapiens, UniProt Q9Y5L3); experiment: Inhibition of human NTPDase2 expressed in African green monkey COS7 cell membrane fraction using ATP as substrate preincubated for 10 mins followed by substrate addition measured after 10 mins by malachite green reagent-based assay
T4 sequence (Q9Y5L3 whole entry): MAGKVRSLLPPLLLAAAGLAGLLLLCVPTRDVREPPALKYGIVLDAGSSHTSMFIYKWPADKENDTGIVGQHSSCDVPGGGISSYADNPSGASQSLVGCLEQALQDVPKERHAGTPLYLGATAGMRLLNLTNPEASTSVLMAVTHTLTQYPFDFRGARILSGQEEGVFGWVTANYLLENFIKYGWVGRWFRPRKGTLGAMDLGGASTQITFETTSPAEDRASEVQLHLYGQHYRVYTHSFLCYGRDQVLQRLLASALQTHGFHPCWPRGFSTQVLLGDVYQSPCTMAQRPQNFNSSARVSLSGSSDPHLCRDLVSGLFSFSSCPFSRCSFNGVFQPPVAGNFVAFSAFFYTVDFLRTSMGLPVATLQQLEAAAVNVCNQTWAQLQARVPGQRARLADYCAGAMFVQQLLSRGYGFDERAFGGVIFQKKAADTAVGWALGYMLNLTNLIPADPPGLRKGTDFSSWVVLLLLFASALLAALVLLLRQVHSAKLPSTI

[5] = target: T5, Ectonucleoside triphosphate diphosphohydrolase 3 (Homo sapiens, UniProt O75355); experiment: Inhibition of human NTPDase3 expressed in African green monkey COS7 cell membrane fraction using ATP as substrate preincubated for 10 mins followed by substrate addition measured after 10 mins by malachite green reagent-based assay
T5 sequence (O75355 whole entry): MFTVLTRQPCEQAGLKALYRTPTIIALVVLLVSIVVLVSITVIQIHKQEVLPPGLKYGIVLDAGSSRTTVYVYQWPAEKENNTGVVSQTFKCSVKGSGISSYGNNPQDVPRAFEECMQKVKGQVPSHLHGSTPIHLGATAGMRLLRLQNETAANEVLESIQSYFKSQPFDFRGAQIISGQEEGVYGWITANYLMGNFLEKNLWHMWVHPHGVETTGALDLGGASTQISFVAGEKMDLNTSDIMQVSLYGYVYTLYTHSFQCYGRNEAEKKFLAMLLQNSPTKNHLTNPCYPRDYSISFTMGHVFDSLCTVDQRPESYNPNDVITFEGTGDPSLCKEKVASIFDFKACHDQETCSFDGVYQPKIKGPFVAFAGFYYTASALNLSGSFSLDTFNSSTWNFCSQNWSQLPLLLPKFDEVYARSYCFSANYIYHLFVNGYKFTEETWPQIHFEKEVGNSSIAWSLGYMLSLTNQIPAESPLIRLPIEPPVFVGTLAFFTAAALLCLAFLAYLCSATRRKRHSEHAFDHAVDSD

[6] = target: T6, Ectonucleoside triphosphate diphosphohydrolase 8 (Homo sapiens, UniProt Q5MY95); experiment: Inhibition of human NTPDase8 expressed in African green monkey COS7 cell membrane fraction using ATP as substrate preincubated for 10 mins followed by substrate addition measured after 10 mins by malachite green reagent-based assay
T6 sequence (Q5MY95 whole entry): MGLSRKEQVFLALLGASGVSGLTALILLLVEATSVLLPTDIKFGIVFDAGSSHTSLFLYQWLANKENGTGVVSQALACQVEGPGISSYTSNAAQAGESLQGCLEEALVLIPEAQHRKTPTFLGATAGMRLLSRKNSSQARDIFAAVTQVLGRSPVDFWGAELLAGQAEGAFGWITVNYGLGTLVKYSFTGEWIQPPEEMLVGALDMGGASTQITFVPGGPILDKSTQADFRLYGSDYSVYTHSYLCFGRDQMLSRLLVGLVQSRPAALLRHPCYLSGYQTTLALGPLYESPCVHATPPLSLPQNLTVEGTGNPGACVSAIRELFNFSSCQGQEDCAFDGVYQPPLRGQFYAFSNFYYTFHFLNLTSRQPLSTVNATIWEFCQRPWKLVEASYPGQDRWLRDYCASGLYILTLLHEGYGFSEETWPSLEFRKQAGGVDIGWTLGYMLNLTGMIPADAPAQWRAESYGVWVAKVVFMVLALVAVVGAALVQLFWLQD

| IC50 [1] | IC50 [2] | IC50 [3] | IC50 [4] | IC50 [5] | IC50 [6] | Structure (SMILES) |
| --- | --- | --- | --- | --- | --- | --- |
| 5760 nM | > 100 µM | > 300 µM | > 300 µM | > 300 µM | > 300 µM | FC(F)(F)c1nc2c(-c3ccsc3)cccc2c(Cl)c1Br |
| 7650 nM | 0.39 µM | – | – | – | – | FC(F)(F)c1nc2c(Br)cccc2c(Cl)c1Br |
| 630 nM | 2.42 µM | – | – | – | – | O=c1c(Br)c(C(F)(F)F)[nH]c2c(Br)cccc12 |
| – | – | – | – | – | > 100 µM | Cc1ccc(C(=O)Nc2ccc(S(=O)(=O)O)c3cc(S(=O)(=O)O)cc(S(=O)(=O)O)c23)cc1NC(=O)c1cccc(NC(=O)Nc2cccc(C(=O)Nc3cc(C(=O)Nc4ccc(S(=O)(=O)O)c5cc(S(=O)(=O)O)cc(S(=O)(=O)O)c45)ccc3C)c2)c1 [SURAMIN] |
| 250 nM | 0.36 µM | – | – | – | – | COc1ccc(OC)c(-c2cccc3c(Cl)c(Br)c(C(F)(F)F)nc23)c1 |
| 20700 nM | > 100 µM | > 300 µM | > 300 µM | > 300 µM | > 300 µM | Cc1cccc(-c2c(C(F)(F)F)nc3c(-c4cccc(C)c4)cccc3c2-c2cccc(C)c2)c1 |
| 9870 nM | > 100 µM | > 300 µM | > 300 µM | > 300 µM | > 300 µM | COc1ccc(-c2c(C(F)(F)F)nc3c(-c4ccc(OC)cc4)cccc3c2-c2ccc(OC)cc2)cc1 |
| 350 nM | > 100 µM | – | – | – | – | N#Cc1cccc(-c2cccc3c(Cl)c(Br)c(C(F)(F)F)nc23)c1 |
| 2810 nM | > 100 µM | > 300 µM | > 300 µM | > 300 µM | > 300 µM | FC(F)(F)c1nc2c(-c3ccccc3)cccc2c(Cl)c1-c1ccccc1 |
| 180 nM | > 100 µM | – | – | – | – | FC(F)(F)c1nc2c(-c3ccccc3)cccc2c(-c2ccccc2)c1-c1ccccc1 |
| 310 nM | > 100 µM | – | – | – | – | FC(F)(F)c1ccc(-c2cccc3c(Cl)c(Br)c(C(F)(F)F)nc23)cc1 |
| 510 nM | > 100 µM | – | – | – | – | Fc1ccc(-c2c(C(F)(F)F)nc3c(-c4ccc(F)cc4)cccc3c2-c2ccc(F)cc2)cc1 |
| 390 nM | 1.14 µM | – | – | – | – | COc1ccc(-c2cccc3c(Cl)c(Br)c(C(F)(F)F)nc23)cc1 |
| 730 nM | > 100 µM | – | – | – | – | Cc1ccc(-c2c(C(F)(F)F)nc3c(-c4ccc(C)cc4)cccc3c2-c2ccc(C)cc2)cc1 |
